The values below come from patent US12258336B2, “Preparation of seimicarbazide-sensitive amine oxidase inhibitor and use thereof” (SHANGHAI ENNOVABIO PHARMACEUTICALS CO., LTD., priority 2018, dated 2025).

Where two headings read alike, the source gives them in different places.

The target in one assay is T1, rat SSAO protein (Rattus norvegicus, UniProt O08590).
T1 construct: Eli Lilly (provided, not a catalogue product)
T1 sequence (O08590 1-763): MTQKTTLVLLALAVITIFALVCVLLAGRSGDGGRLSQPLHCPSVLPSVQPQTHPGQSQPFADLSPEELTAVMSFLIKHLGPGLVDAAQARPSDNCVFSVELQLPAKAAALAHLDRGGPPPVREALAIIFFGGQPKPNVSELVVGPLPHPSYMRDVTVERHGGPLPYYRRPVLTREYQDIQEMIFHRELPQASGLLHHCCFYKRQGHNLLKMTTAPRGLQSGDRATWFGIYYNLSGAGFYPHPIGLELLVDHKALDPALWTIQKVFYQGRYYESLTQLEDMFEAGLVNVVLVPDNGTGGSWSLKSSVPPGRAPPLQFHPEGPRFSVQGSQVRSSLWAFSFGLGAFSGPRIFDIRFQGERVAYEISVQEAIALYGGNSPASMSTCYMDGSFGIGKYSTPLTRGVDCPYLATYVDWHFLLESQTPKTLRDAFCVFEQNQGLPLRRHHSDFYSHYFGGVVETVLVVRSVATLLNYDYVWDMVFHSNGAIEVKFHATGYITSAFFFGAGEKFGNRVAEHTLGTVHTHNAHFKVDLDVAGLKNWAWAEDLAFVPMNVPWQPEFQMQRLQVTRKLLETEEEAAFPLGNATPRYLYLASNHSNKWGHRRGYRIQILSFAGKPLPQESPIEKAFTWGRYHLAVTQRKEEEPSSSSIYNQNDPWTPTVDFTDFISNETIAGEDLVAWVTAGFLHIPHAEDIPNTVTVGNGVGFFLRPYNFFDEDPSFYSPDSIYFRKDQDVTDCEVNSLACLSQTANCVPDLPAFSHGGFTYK
Briefly: In vitro inhibitory activity on SSAO/VAP-1 (MAO-Glo assay), rat. The format is biochemical. The method, then:
This assay was used to evaluate the in vitro inhibitory activity of the compounds on SSAO/VAP-1 of different species. Recombinant human SSAO protein, mouse SSAO protein or rat SSAO protein (provided by Eli Lilly) were used. The enzyme activity detection kit, MAO-Glo Assay kit (V1402) was purchased from Promega. Enzyme reaction buffer (50 mM HEPES, 120 mM NaCl, 5 mM KCl, 2 mM CaCl2, 1.4 mM MgCl2, 0.001% Tween-20, pH7.4) was prepared. The test compound was dissolved in DMSO and diluted by 3-fold concentration in gradient. The final concentration of test compound in a 10 μL reaction system was 1 μM to 0.05 nM when SSAO was detected. The content of DMSO in the detection reaction was 1%. After the solution of test compound in DMSO was diluted in the enzyme reaction buffer at a volume ratio of 1:25, 2.5 μL of which was added to each well of detection plate, two replicates for each concentration. 5 μL of SSAO protein diluted in the enzyme reaction buffer was added to each well, the final concentration of which was 10 nM to 80 nM in 10 μL reaction system. The mixture was incubated at room temperature for 10 minutes. 2.5 μL of the reaction substrate diluted in the enzyme reaction buffer was added to each well, the final concentration of which was 10 μM in 10 μL reaction system. After the mixture was reacted at room temperature for 120 minutes, 10 μL of detection reagent was added to each well. The reaction solution was incubated for 20 minutes at room temperature, and the plate was read with Synergy Neo 2 for detection. The value was converted into inhibition rate by the following formula: Inhibition rate=(Signalpositive−Signaltest)/(Signalpositive−Signalnegative)×100%
Signalpositive was positive control without test compound. Signalnegative was negative control without test compound and SSAO enzyme, and Signaltest was detection value of each compound at different concentrations. IC50 value was calculated by using 4 parameter curve fitting.

For a further assay, the target named is T2, SSAO/VAP-1 (Rattus norvegicus, UniProt O08590).
T2 construct: from tissue; host or cells: rat plasma, brain, retina, small intestine, lung, liver, kidney
T2 sequence (O08590 1-763): T1 sequence (O08590 1-763)
Nature of the assay: Inhibitory activity on SSAO/VAP-1 in animal tissues after oral administration. The following applies: 1 mg/kg, 24 hours post single administration, mean ± SEM. The format is in vivo. The method, then: MAO-Glo Assay kit (Promega, V1402) was used to determine the activity of SSAO in animal tissues. After test compounds were adminstered to the animal, SSAO enzyme activity was calculated by measuring the activity of the monoamine oxidases in the animal tissue homogenate that was insensitive to MAO inhibitors Clogyline and Pargyline. The compounds were orally administered to rats at different doses, and same volume of vehicle was orally administered to control animals. Animal plasma, brain, retina, small intestine, lung, liver, and kidney were respectively collected 24 hours after administration (the animals were perfused with PBS before the collection of small intestine, lung, liver, and kidney) and stored in a −80° C. refrigerator until analysis. Each tissue was homogenized in tissue homogenate lysis buffer (20 mM HEPES, pH 7.4, 150 mM NaCl, 1 mM EDTA, 1 mM EGTA, 1% Triton X-100 and 1× Roche Complete protease inhibitor tablet). The homogenate was centrifuged at 12000 rpm at 4° C. for 30 minutes to remove tissue fragments. 5 μL of supernatant and 2 μL of mixture of Clogyline (10 μM) and Pargyline (10 μM) were incubated for 10 minutes at room temperature. Then 2 μL of substrate from MAO-Glo assay kit was added to the mixture, and reacted at room temperature for 60 minutes. Detection reagents were added to quench the reaction according to instructions. The fluorescein data was read by Biotek Neo2. The activity of monoamine oxidase in tissues that is not sensitive to MAO inhibitors was used to represent the activity of SSAO. Percentage of SSAO activity in administered animals was compared with that of control animals to calculate the compound inhibition rate.

Turning to `COC1CC2CCC(C1)N2c1ncc(OC/C(=C/F)CN)cn1` (stereo not shown) [Example 12], the IC50 (commonly the point on the concentration scale where inhibition reaches its midpoint) on rat SSAO protein was less than 100 nM. Moreover, the remaining activity (usually the signal under treatment as a percentage of the control signal) at 1 mg/kg was determined as 63.1 ± 12.1% at SSAO/VAP-1 (brain, read-out: remaining SSAO activity percentage (SSAO activity %), Brain); 25.6 ± 3% on SSAO/VAP-1 (plasma, read-out: remaining SSAO activity percentage (SSAO activity %), Plasma); 24.6 ± 3.5% at SSAO/VAP-1 (retina, read-out: remaining SSAO activity percentage (SSAO activity %), Retina).
